This note sets out measurements from US20170313669A1, “LACTONE COMPOUNDS AND METHODS OF MAKING AND USING SAME” (THE SCRIPPS RESEARCH INSTITUTE, priority 2015, published 2017).

The target of series [1] is T1, mouse ABHD16A (Mus musculus, UniProt Q9Z1Q2).
T1 construct: full-length cDNA of human ABHD16A (Open Biosystems Catalog # MHS6278-202758315) or murine ABHD16A (Open Biosystems Catalog # MMM1013-202760516); host or cells: HEK293T, transient, pCMV-SPORT6
T1 sequence (Q9Z1Q2 1-558): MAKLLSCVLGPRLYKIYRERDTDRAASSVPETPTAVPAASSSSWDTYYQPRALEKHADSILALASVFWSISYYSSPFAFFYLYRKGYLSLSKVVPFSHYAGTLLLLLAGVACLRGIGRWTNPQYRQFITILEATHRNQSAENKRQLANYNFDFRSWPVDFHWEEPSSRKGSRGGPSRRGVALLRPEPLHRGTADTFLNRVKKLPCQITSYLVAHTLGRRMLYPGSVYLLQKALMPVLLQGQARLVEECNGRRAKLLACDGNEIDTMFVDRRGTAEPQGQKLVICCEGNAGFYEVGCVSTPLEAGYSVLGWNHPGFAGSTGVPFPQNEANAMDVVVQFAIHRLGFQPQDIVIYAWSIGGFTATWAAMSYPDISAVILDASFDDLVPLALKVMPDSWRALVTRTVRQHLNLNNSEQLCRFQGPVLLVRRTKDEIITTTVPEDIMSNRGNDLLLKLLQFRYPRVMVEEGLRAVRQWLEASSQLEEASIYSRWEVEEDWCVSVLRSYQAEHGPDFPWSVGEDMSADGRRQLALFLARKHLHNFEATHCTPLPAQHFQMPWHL
As to the kind of experiment: PS substrate assay, mouse ABHD16A-transfected HEK293T proteome. The series is classed as biochemical. The following applies: 20 μM, 30 min, 37° C.

The target of series [2] is T2, ABHD16A (Homo sapiens, UniProt O95870).
T2 sequence (O95870 1-558): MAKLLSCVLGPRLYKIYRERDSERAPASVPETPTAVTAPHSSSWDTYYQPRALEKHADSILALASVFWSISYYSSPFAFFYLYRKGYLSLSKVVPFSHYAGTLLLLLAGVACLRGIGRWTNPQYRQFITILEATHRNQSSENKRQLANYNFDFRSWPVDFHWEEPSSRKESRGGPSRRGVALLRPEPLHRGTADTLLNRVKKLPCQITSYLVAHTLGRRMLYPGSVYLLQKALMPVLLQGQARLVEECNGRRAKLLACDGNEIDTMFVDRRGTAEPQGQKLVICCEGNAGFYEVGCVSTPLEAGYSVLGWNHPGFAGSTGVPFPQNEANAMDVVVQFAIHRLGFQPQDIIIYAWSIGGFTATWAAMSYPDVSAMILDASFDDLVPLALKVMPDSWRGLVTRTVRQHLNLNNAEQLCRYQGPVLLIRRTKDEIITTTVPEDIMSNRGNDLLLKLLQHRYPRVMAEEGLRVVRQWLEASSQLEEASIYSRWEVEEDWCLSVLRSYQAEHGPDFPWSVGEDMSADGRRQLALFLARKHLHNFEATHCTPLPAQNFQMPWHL
The experiment in a line: PS substrate assay, human ABHD16A-transfected HEK293T membrane proteome. Details: transiently transfected with 12 μg of the full-length cDNA of human ABHD16A (Open Biosystems Catalog # MHS6278-202758315); host or cells: HEK293T, transient, pCMV-SPORT6. To be noted: 20 μM, 30 min. The series is classed as biochemical. Here is the method: HEK293T cells were grown to 40% confluence in a 15 cm dish in 25 mL of Dulbecco's modified Eagle medium (DMEM) supplemented with L-glutamine and 10% (vol/vol) FCS at 37° C. and 5% CO2 (vol/vol). The cells were transiently transfected with 12 μg of the full-length cDNA of human ABHD16A (Open Biosystems Catalog # MHS6278-202758315) or murine ABHD16A (Open Biosystems Catalog # MMM1013-202760516) in pCMV-SPORT6 vector using 40 μg polyethyleneimine “MAX” (MW 40,000) (PEI) (Polysciences Inc. Catalog #24765) as the transfection reagent as per manufacturer's instructions. As a “mock” control, an empty vector was transiently transfected. […] Protein concentration was measured using the Bio-Rad DC Protein Assay Kit as per manufacturer's protocol, and ABHD16A expression was confirmed using gel-based ABPP.
All the lipid species used in the lipid substrate hydrolysis assays were purchased from Avanti Polar Lipids Inc unless mentioned otherwise. […] All the data was collected and analyzed using the Agilent MassHunter Workstation software version B.04 using the Data Acquisition and Quantitative Analysis programs respectively. Measuring the area under the peak, and normalizing it to the internal standard quantified the product release for the lipid substrate hydrolysis assays. […] Some products from the substrate hydrolysis assays were detected in positive ion mode for qualitative identification. […]

The test system of series [3] is ABHD16A−/− macrophages. As to the kind of experiment: Lyso-PS and cytokines of ABHD16A−/− macrophages. Type of series: cell-based, mouse. The following applies: basal or LPS stimulation; 1 μM, 4 h. Here is the method:
Concentration of secreted lyso-PS (a) and cytokines IL-6 (b) and TNF-α (c) from thioglycollate-elicited peritoneal mouse macrophages from ABHD16A^−/− mice treated with inhibitor (KC01 or KC02, 1 μM, 4 h) followed by vehicle (PBS) or LPS (5 μg/mL) for 7 h is shown. Data represent mean±s.e.m. for four biological replicates. KC01 and KC02 have no effect on lyso-PS or cytokine secretion. Other secreted and cellular lipids in ABHD16A^−/− macrophages were also unchanged by KC01 or KC02 treatment (data not shown).
Peritoneal macrophages were elicited and harvested from mice according to the standard protocols available from LIPID MAPS (See http://www.lipidmaps.org/protocols/PP0000001400.pdf and http://www.lipidmaps.org/protocols/PP0000001500.pdf). After removal of the RBC lysis buffer, the macrophages were re-suspended in RPMI 1640 with 10% FCS and IX penicillin-streptomycin. Cell counts measured using a Bio-Rad TC10 automated cell counter, and equal numbers of cells (2×10^6) were plated in 10 cm tissue culture dishes. Macrophages were allowed to adhere to the plates for 2 h at 37° C. and 5% CO2. […] Macrophages were then stimulated with lipopolysaccharide (5 μg/mL) for 7 hours. Sterile PBS was the vehicle in these studies. Four milliliters of the media was used for measuring secreted metabolites, and 0.5 mL was used for cytokine measurements.

Series [4] has as its target T2, ABHD16A. As to the kind of experiment: ABPP-SILAC, COLO205 cells treated in situ. Type of series: cell-based. Details: All ABPP-SILAC experiments were performed using the human COLO205 colon cancer cell line; endogenous in cells; host or cells: COLO205. To be noted: COLO 205, 4 h.
Series [5] concerns serine hydrolase targets from mouse brain and COLO205 membrane proteomes. The experiment in a line: Competitive gel-based ABPP of β-lactone probe set. The series is classed as biochemical. To be noted: 25 μM, 30 min, 37° C., then FP-rhodamine. Here is the method:
Competitive gel-based ABPP were performed as described previously with slight modifications. See Adibekian et al. Nat. Chem. Biol. (2011) 7, 469. […] The reactions were quenched by adding 40 μL of 4×SDS-PAGE loading buffer for reducing gels, followed by boiling for 2 minutes. All samples were visualized in-gel using an FMBio II Multiview flatbed fluorescence scanner (Hitachi). The fluorescence from rhodamine is presented in gray scale.

Series [6] addresses T3, PNPLA4 (Homo sapiens, UniProt P41247).
T3 construct: All ABPP-SILAC experiments were performed using the human COLO205 colon cancer cell line; endogenous in cells; host or cells: COLO205
As to the kind of experiment: ABPP-SILAC of COLO205 membrane proteome treated with compound 8b. The series is classed as biochemical. To be noted: 30 min.

The target of series [7] is T4, FAAH (Homo sapiens, UniProt O00519).
T4 construct: All ABPP-SILAC experiments were performed using the human COLO205 colon cancer cell line; endogenous in cells; host or cells: COLO205
Described as above. Type of series: biochemical. To be noted: 30 min.

For series [8], the target named is T5, ABHD2 (Homo sapiens, UniProt P08910).
T5 construct: All ABPP-SILAC experiments were performed using the human COLO205 colon cancer cell line; endogenous in cells; host or cells: COLO205
The series is described as above. The series is classed as biochemical. The following applies: 30 min.

The target in series [9] is T6, CES2 (Homo sapiens, UniProt O00748).
T6 construct: All ABPP-SILAC experiments were performed using the human COLO205 colon cancer cell line; endogenous in cells; host or cells: COLO205
The description is as above. The series is classed as biochemical. The following applies: 30 min.

Series [10] concerns the target T7, ABHD12 (Homo sapiens, UniProt Q8N2K0).
T7 construct: All ABPP-SILAC experiments were performed using the human COLO205 colon cancer cell line; endogenous in cells; host or cells: COLO205
Described as above. The following applies: 30 min. The series is classed as biochemical.

Series [11] has as its target T8, FASN (Homo sapiens, UniProt P49327).
T8 construct: All ABPP-SILAC experiments were performed using the human COLO205 colon cancer cell line; endogenous in cells; host or cells: COLO205
The series is described as above. The series is classed as biochemical. To be noted: 30 min.

Series [12] addresses T9, ABHD3 (Homo sapiens, UniProt Q8WU67).
T9 construct: All ABPP-SILAC experiments were performed using the human COLO205 colon cancer cell line; endogenous in cells; host or cells: COLO205
The description is as above. Type of series: biochemical. To be noted: 30 min.

For series [13], the target named is T2, ABHD16A. The series is described as above. Type of series: biochemical. The arrangement: All ABPP-SILAC experiments were performed using the human COLO205 colon cancer cell line; endogenous in cells; host or cells: COLO205. To be noted: 30 min.

The melting point is the temperature of the solid-liquid transition. Usually inhibition stands for the percentage by which the read-out fell short of the control.

T4 sequence (O00519 whole entry): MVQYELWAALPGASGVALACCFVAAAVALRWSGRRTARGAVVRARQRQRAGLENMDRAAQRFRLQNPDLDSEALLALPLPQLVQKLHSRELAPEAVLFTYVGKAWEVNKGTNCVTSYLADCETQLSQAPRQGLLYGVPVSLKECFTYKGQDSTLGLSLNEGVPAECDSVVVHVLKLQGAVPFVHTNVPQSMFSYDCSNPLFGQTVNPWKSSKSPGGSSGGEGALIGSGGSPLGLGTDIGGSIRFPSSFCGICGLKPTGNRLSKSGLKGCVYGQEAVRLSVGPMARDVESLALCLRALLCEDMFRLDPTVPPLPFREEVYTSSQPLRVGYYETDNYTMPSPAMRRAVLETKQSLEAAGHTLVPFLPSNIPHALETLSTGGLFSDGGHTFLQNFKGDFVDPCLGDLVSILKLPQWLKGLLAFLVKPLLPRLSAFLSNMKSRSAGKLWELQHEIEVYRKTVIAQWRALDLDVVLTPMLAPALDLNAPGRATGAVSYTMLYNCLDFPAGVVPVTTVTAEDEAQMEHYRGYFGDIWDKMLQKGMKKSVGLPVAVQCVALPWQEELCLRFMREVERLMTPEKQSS
T9 sequence (Q8WU67 whole entry): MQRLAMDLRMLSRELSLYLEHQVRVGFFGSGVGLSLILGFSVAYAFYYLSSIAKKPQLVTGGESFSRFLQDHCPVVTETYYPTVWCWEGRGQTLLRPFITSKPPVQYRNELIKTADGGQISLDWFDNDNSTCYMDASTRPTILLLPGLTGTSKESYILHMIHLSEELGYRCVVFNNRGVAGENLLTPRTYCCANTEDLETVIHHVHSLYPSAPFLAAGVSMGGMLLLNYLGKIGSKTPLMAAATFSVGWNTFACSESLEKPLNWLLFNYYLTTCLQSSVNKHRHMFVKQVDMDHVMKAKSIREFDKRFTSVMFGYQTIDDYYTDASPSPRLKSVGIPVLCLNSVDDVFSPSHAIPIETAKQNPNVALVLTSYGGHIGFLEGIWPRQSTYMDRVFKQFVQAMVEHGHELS
T5 sequence (P08910 whole entry): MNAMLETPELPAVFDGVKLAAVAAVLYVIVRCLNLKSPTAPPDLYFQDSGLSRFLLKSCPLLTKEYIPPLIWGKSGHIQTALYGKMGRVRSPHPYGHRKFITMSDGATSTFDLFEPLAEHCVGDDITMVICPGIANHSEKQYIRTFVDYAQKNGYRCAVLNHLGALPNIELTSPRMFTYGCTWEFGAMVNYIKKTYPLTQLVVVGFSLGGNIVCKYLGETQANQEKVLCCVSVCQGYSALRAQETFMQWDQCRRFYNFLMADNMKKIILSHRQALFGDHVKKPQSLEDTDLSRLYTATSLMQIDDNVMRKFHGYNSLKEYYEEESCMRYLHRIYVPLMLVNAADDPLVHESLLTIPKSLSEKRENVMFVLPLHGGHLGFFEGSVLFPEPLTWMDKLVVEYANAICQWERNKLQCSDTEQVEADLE
T6 sequence (O00748 27-559): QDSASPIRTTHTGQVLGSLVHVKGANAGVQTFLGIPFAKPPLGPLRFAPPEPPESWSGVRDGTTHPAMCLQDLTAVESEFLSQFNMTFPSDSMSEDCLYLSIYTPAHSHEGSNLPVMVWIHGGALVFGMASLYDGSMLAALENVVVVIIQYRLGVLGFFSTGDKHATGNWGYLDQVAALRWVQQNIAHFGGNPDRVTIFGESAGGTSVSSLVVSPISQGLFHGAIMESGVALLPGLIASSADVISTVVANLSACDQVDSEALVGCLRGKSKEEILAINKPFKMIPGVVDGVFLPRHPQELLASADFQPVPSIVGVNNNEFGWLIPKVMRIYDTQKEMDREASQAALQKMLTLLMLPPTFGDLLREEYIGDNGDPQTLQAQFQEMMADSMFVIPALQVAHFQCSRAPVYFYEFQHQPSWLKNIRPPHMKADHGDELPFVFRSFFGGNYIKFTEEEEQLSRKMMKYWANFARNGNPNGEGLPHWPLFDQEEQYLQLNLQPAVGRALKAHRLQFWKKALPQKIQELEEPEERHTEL
T7 sequence (Q8N2K0 whole entry): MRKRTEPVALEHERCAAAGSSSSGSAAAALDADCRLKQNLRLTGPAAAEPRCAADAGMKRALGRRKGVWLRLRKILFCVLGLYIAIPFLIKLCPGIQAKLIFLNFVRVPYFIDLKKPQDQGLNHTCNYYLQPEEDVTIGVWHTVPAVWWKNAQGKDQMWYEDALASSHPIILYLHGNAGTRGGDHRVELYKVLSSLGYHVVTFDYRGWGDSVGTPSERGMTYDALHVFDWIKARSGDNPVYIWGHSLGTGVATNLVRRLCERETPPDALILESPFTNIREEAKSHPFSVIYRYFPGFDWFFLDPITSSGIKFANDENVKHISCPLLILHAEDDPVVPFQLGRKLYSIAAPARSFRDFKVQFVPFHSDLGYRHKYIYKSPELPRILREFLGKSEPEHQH
T8 sequence (P49327 whole entry): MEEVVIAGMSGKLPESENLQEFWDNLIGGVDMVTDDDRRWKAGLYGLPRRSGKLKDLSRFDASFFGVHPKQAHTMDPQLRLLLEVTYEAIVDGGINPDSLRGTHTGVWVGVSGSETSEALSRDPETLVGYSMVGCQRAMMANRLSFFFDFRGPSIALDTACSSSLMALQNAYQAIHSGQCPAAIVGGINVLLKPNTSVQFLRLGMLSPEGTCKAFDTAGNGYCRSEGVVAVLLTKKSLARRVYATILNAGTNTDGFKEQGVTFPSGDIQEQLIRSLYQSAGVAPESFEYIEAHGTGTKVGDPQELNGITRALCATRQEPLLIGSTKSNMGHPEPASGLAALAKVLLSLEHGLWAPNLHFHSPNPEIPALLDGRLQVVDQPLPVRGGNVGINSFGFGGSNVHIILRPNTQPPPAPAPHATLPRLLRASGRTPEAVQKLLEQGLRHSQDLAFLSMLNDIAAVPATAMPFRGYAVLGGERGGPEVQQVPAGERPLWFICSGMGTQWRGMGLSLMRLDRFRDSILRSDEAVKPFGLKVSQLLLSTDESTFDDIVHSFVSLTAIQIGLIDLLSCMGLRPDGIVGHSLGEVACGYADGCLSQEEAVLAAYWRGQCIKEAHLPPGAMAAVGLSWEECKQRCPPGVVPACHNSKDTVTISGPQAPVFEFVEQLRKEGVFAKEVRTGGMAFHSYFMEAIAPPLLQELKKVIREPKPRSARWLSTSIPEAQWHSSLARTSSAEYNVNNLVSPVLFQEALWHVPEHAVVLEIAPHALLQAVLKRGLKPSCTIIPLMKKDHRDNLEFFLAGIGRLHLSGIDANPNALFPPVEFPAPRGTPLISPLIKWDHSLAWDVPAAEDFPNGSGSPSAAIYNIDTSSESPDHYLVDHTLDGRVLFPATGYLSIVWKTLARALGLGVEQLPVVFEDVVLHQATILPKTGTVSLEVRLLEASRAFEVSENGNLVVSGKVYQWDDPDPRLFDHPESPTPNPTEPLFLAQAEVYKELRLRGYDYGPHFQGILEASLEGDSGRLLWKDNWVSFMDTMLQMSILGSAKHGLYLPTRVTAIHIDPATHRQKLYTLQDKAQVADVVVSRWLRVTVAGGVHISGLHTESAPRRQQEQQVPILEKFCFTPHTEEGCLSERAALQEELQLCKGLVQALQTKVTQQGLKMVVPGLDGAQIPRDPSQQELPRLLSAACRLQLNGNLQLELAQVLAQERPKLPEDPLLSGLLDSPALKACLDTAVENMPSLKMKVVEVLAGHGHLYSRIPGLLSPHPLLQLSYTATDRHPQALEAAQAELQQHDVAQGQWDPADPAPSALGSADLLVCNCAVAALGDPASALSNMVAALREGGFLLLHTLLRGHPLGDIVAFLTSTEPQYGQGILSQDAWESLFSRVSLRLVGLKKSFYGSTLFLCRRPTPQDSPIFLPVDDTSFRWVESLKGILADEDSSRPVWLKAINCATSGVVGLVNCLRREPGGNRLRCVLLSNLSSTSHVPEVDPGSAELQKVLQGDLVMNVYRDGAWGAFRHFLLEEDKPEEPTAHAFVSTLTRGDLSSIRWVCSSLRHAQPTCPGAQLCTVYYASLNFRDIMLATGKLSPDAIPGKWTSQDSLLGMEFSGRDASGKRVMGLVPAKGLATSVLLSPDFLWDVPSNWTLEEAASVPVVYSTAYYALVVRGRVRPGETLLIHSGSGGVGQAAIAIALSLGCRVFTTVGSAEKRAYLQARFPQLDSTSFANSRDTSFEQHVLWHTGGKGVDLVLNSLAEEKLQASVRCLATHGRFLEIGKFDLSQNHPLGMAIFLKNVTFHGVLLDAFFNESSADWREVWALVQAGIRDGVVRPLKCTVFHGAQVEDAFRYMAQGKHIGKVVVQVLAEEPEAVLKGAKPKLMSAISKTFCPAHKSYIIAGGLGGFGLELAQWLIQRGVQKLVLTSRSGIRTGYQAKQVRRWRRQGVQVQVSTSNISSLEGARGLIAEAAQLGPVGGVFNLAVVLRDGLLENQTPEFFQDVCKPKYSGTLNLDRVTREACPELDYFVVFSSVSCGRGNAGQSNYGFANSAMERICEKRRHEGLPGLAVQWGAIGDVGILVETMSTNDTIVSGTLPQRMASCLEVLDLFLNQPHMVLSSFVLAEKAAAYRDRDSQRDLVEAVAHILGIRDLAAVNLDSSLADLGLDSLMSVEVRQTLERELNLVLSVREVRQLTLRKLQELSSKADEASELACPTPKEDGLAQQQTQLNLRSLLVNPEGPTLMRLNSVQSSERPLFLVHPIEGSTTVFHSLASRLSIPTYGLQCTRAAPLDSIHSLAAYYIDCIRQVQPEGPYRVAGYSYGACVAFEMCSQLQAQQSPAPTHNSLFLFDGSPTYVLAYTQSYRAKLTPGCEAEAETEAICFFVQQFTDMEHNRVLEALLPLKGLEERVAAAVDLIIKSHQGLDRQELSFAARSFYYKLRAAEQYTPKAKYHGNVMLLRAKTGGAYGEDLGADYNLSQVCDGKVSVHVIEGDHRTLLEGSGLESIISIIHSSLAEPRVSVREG

As to `CCCCCCCCCCCCCC1OC(=O)C1CCCCCC(N)=O` (mixture of isomers) [Compound 17, (cis/trans)-6-(2-Oxo-4-tridecyloxetan-3-yl)hexanamide], the melting point lay within 98 to 101 °C.
Same read-out and setting: next, `CCCCCCCCCCCCCC1OC(=O)/C1=C\c1ccccc1` (stereo not drawn) [Compound 3, (Z)-3-benzylidene-4-tridecyloxetan-2-one]: 61 to 62 °C; `NC(=O)CCCC/C=C1\C(=O)OC1CCCCCCCCCc1ccccc1` (stereo not drawn) [Compound 15, (Z)-6-(2-Oxo-4-(9-phenylnonyl)oxetan-3-ylidene)hexanamide]: 93 to 94 °C.
Take `CCCCCCCCCCC[C@@H](C[C@@H]1OC(=O)[C@H]1CCCCCC)OC(=O)[C@H](CC(C)C)NC=O` [THL, tetrahydrolipstatin, reference compound]: the “heightened PS lipase activity of ABHD16A-transfected proteome” value in [1] and in series [2] was “blocked” each time.
In turn, `CCCCCCCCCCCCCC1OC(=O)/C1=C\CCCCCS(N)(=O)=O` (stereo not drawn) [Compound 16, (Z)-6-(2-Oxo-4-tridecyloxetan-3-ylidene)hexane-1-sulfonamide] had a melting point of 79 to 80 °C.
Compound `CCCCCCCCCCCCCC1OC(=O)/C1=C\CCCCc1ccccc1` (stereo not drawn) [Compound 4, (Z)-3-(5-phenylpentylidene)-4-tridecyloxetan-2-one] displayed a melting point of 34 to 35 °C.
For the compound `NC(=O)CCCCC=C1C(=O)OC1CCc1ccccc1` (mixture of isomers) [KC02, (E/Z)-6-(2-Oxo-4-(2-phenethyl)oxetan-3-ylidene)hexanamide], the “cellular or secreted lyso-PS, other lipids, secreted IL-6 and TNF-α” value in series [3] is “No changes”. Also, the inhibition at 1 µM in series [4] was below 30%.
Regarding `CCCCCCCCCCCCC[C@@H]1OC(=O)[C@H]1Cc1ccccc1` (relative stereo) [Compound 8b, (trans)-3-benzyl-4-tridecyloxetan-2-one], the “reactivity / inhibition of serine hydrolase activities” value in series [5] is given as “broadest reactivity”. For the same compound, the inhibition at 25 µM in series [6] is above 90%; in series [7] it was above 90%; in [8], above 90%; in series [9], above 90%; in series [10], above 90%; in [11], 70 to 90%. Further, the inhibition at 25 µM is 70 to 90% in series [12] and above 90% in [13].
